Experimental data from article PMC7967551 (2021).

Tests used:
[1] = test system: Tel23 (DNA, G4) TAGGGTTAGGGTTAGGGTTAGGG; assay: UV melting at 295 nm; settings: K+ 100 mM (KCl), Li+, LiCac 2.5 mM, pH 7.0, 5.51 µM G4, no stabilizing effect
[2] = test system: Tel23 (DNA, G4) TAGGGTTAGGGTTAGGGTTAGGG; assay: absorbance titration; settings: K+ (KCl 0.1 M stated for G4 melting), Li+; LiCac 2.5 mM, pH 7.0; no signal change; highest concentration not stated

Row | binding ([1]; 5.47 µM compound) | binding [2] | binding ([1]; 6.01 µM compound) | Compound
1 | no | no |  | c1cc[n+]2c(c1)-c1cccc[n+]1CC2
2 |  | no | no | C[n+]1ccc(-c2cc[n+](C)cc2)cc1
